Target: T1, human Nav1.8 (Homo sapiens, UniProt Q9Y5Y9)
T1 construct: expressed in transfected cells; host or cells: HEK293 (HEK293-Nav1.8)
Test: Nav1.8 sodium channels assay, QPatch 48 HTX electrophysiology in HEK293-Nav1.8 cells
Type: cell-based
Conditions: at least one set of experimental runs; read-out: average pIC50 value against Nav1.8 (converted)
How it was run: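 HEK293 cells co-expressing human Nav1.8, Navβ1 and TREK1 were voltage-clamped on QPatch 48 HTX. The V1/2 protocol ran at 0.07 Hz: hold −100 mV, 20 ms to 0 mV, 8 s at −46 mV, 20 ms at −100 mV, then 20 ms at 0 mV (P2). P2 current was fitted over 6-8 concentrations for IC50, with vehicle wells used to correct for run-down.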

T1 sequence (Q9Y5Y9 whole entry): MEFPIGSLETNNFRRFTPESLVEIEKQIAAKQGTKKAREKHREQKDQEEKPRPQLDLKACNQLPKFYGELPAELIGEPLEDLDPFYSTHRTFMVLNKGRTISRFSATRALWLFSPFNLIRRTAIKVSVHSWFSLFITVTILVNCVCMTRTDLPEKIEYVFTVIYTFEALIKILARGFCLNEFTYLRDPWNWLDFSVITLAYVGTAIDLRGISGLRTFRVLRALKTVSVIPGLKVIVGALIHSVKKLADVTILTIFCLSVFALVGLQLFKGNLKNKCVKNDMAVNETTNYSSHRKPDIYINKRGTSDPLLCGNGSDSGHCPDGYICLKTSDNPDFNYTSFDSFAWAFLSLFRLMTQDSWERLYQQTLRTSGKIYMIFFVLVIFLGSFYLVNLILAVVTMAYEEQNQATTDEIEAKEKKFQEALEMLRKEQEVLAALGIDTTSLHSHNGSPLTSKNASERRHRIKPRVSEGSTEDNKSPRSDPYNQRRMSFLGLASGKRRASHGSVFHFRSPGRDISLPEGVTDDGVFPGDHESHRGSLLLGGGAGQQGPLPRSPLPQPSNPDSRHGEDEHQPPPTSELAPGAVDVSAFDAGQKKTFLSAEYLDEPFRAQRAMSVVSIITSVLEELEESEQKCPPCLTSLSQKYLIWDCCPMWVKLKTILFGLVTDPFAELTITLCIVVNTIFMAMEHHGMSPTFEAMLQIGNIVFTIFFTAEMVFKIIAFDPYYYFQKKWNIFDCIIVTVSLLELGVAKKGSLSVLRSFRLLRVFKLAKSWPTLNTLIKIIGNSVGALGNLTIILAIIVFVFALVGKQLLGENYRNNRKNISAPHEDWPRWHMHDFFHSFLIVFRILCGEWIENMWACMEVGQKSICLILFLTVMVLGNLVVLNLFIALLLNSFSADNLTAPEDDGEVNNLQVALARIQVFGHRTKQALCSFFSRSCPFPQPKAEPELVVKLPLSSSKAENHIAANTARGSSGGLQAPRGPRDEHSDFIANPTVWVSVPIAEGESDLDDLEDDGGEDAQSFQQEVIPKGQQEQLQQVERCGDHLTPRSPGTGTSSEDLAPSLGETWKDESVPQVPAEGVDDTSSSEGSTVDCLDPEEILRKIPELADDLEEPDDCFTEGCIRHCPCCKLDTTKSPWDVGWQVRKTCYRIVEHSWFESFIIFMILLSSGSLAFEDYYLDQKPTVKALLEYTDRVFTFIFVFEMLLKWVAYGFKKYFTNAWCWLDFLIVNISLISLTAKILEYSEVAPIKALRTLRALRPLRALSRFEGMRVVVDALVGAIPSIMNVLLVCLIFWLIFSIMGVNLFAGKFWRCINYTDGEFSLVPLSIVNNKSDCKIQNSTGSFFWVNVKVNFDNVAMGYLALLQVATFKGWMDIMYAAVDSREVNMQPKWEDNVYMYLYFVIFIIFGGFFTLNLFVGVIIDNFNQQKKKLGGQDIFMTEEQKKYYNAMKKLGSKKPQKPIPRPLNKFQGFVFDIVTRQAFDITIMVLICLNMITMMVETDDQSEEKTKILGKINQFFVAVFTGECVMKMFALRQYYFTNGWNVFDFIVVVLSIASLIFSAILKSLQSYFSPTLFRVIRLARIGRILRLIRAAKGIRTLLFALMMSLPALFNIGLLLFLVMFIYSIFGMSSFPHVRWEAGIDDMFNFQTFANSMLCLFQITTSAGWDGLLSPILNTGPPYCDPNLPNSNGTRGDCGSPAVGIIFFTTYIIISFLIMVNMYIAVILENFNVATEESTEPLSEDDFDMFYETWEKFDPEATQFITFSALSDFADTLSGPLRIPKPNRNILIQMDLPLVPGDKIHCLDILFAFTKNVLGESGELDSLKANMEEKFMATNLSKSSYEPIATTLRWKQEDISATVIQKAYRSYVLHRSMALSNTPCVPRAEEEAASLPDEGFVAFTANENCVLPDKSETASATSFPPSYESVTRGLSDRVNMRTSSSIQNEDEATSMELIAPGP
T1 sequence (Q07699 19-218 partner): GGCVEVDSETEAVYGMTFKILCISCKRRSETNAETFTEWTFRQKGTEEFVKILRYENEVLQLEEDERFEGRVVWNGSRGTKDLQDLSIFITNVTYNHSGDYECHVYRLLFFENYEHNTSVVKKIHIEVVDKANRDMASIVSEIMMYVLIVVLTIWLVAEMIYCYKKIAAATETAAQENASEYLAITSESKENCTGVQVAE

| SMILES | IC50 |
| --- | --- |
| Cc1[nH]c(=O)ccc1N1CN(c2ccc(F)cc2C(C)C)c2cc(F)c(Cl)cc2C1=O [Example 98, 6-chloro-7-fluoro-1-(4-fluoro-2-isopropylphenyl)-3-(2-methyl-6-oxo-1,6-dihydropyridin-3-yl)-2,3-dihydroquinazolin-4(1H)-one] | ≤ 100 nM |
| COc1ccc2c(c1)N(c1ccc(F)cc1C)CN(c1ccc(=O)[nH]c1C)C2=O [Example 99, 1-(4-fluoro-2-methylphenyl)-7-methoxy-3-(2-methyl-6-oxo-1,6-dihydropyridin-3-yl)-2,3-dihydroquinazolin-4(1H)-one] | ≤ 100 nM |
| COc1cc2c(cc1C(F)(F)F)N(c1ccc(F)cc1C)CN(c1ccc(=O)[nH]c1C)C2=O [Example 101, 1-(4-fluoro-2-methylphenyl)-6-methoxy-3-(2-methyl-6-oxo-1,6-dihydropyridin-3-yl)-7-(trifluoromethyl)-2,3-dihydroquinazolin-4(1H)-one] | ≤ 100 nM |
| Cc1[nH]c(=O)ccc1N1CN(c2ccc(F)cc2C(C)C)c2cc(OC(F)(F)F)ccc2C1=O [Example 103, 1-(4-fluoro-2-isopropylphenyl)-3-(2-methyl-6-oxo-1,6-dihydropyridin-3-yl)-7-(trifluoromethoxy)-2,3-dihydroquinazolin-4(1H)-one] | ≤ 100 nM |
| Cc1cc(F)ccc1N1CN(c2ccc(=O)[nH]c2C)C(=O)c2cc(C(F)(F)F)c(F)cc21 [Example 107, 7-fluoro-1-(4-fluoro-2-methylphenyl)-3-(2-methyl-6-oxo-1,6-dihydropyridin-3-yl)-6-(trifluoromethyl)-2,3-dihydroquinazolin-4(1H)-one] | ≤ 100 nM |
| Cc1cc(F)ccc1N1CN(c2ccc(=O)[nH]c2C)C(=O)c2cc(F)c(Cl)cc21 [Example 109, 7-chloro-6-fluoro-1-(4-fluoro-2-methylphenyl)-3-(2-methyl-6-oxo-1,6-dihydropyridin-3-yl)-2,3-dihydroquinazolin-4(1H)-one] | ≤ 100 nM |
| Cc1cc(F)ccc1N1CN(c2ccc(=O)[nH]c2C)C(=O)c2cc(C(F)(F)F)c(C#N)cc21 [Example 111, 1-(4-fluoro-2-methylphenyl)-3-(2-methyl-6-oxo-1,6-dihydropyridin-3-yl)-4-oxo-6-(trifluoromethyl)-1,2,3,4-tetrahydroquinazoline-7-carbonitrile] | ≤ 100 nM |
| Cc1cc(F)ccc1N1CN(c2ccc(=O)[nH]c2C)C(=O)c2cc(C#N)c(OC(F)(F)F)cc21 [Example 112, 1-(4-fluoro-2-methylphenyl)-3-(2-methyl-6-oxo-1,6-dihydropyridin-3-yl)-4-oxo-7-(trifluoromethoxy)-1,2,3,4-tetrahydroquinazoline-6-carbonitrile] | ≤ 100 nM |
| Cc1cc(F)c(F)cc1N1CN(c2ccc(=O)[nH]c2C)C(=O)c2cc(C(F)(F)F)ccc21 [Example 113, 1-(4,5-difluoro-2-methylphenyl)-3-(2-methyl-6-oxo-1,6-dihydropyridin-3-yl)-6-(trifluoromethyl)-2,3-dihydroquinazolin-4(1H)-one] | 126 to 631 nM |
| Cc1[nH]c(=O)ccc1N1CN(c2ccc(F)cc2C(C)(C)C)c2cc(C(F)(F)F)ccc2C1=O [Example 114, 1-(2-(tert-butyl)-4-fluorophenyl)-3-(2-methyl-6-oxo-1,6-dihydropyridin-3-yl)-7-(trifluoromethyl)-2,3-dihydroquinazolin-4(1H)-one] | ≤ 100 nM |
| Cc1cc(C#N)ccc1N1CN(c2ccc(=O)[nH]c2C)C(=O)c2cc(Cl)ccc21 [Example 117, 4-(6-chloro-3-(2-methyl-6-oxo-1,6-dihydropyridin-3-yl)-4-oxo-3,4-dihydroquinazolin-1(2H)-yl)-3-methylbenzonitrile] | ≤ 100 nM |

The next lines start with the values.

| IC50 | SMILES |
| --- | --- |
| ≤ 100 nM | Cc1[nH]c(=O)ccc1N1CN(c2ccc(F)c(F)c2C)c2ccc(C(F)(F)F)cc2C1=O [Example 96, 1-(3,4-difluoro-2-methylphenyl)-3-(2-methyl-6-oxo-1,6-dihydropyridin-3-yl)-6-(trifluoromethyl)-2,3-dihydroquinazolin-4(1H)-one] |
| ≤ 100 nM | Cc1[nH]c(=O)ccc1N1CN(c2ccc(F)cc2C(C)C)c2ccc(Cl)c(C)c2C1=O [Example 97, 6-chloro-1-(4-fluoro-2-isopropylphenyl)-5-methyl-3-(2-methyl-6-oxo-1,6-dihydropyridin-3-yl)-2,3-dihydroquinazolin-4(1H)-one] |
| 794 to 7940 nM | Cc1cc(F)ccc1N1CN(c2ccc(=O)[nH]c2C)C(=O)c2cc(O)c(C(F)(F)F)cc21 [Example 100, 1-(4-fluoro-2-methylphenyl)-6-hydroxy-3-(2-methyl-6-oxo-1,6-dihydropyridin-3-yl)-7-(trifluoromethyl)-2,3-dihydroquinazolin-4(1H)-one] |
| 126 to 631 nM | Cc1cc(F)ccc1N1CN(c2ccc(=O)[nH]c2C)C(=O)c2cc(Cl)cnc21 [Example 102, 6-chloro-1-(4-fluoro-2-methylphenyl)-3-(2-methyl-6-oxo-1,6-dihydropyridin-3-yl)-2,3-dihydropyrido[2,3-d]pyrimidin-4(1H)-one] |
| ≤ 100 nM | Cc1cc(F)ccc1N1CN(c2ccc(=O)[nH]c2C)C(=O)c2cc(Cl)c(F)cc21 [Example 104, 6-chloro-7-fluoro-1-(4-fluoro-2-methylphenyl)-3-(2-methyl-6-oxo-1,6-dihydropyridin-3-yl)-2,3-dihydroquinazolin-4(1H)-one] |
| ≤ 100 nM | Cc1cc(F)ccc1N1CN(c2ccc(=O)[nH]c2C)C(=O)c2cc(Cl)c(C#N)cc21 [Example 105, 6-chloro-1-(4-fluoro-2-methylphenyl)-3-(2-methyl-6-oxo-1,6-dihydropyridin-3-yl)-4-oxo-1,2,3,4-tetrahydroquinazoline-7-carbonitrile] |
| ≤ 100 nM | CCc1[nH]c(=O)ccc1N1CN(c2ccc(F)cc2C)c2ccc(Cl)cc2C1=O [Example 106, 6-chloro-3-(2-ethyl-6-oxo-1,6-dihydropyridin-3-yl)-1-(4-fluoro-2-methylphenyl)-2,3-dihydroquinazolin-4(1H)-one] |
| ≤ 100 nM | Cc1cc(F)ccc1N1CN(c2ccc(=O)[nH]c2C)C(=O)c2c1ccc(C(F)(F)F)c2F [Example 108, 5-fluoro-1-(4-fluoro-2-methylphenyl)-3-(2-methyl-6-oxo-1,6-dihydropyridin-3-yl)-6-(trifluoromethyl)-2,3-dihydroquinazolin-4(1H)-one] |
| ≤ 100 nM | Cc1cc(F)ccc1N1CN(c2ccc(=O)[nH]c2C)C(=O)c2cc(F)c(C(F)(F)F)cc21 [Example 110, 6-fluoro-1-(4-fluoro-2-methylphenyl)-3-(2-methyl-6-oxo-1,6-dihydropyridin-3-yl)-7-(trifluoromethyl)-2,3-dihydroquinazolin-4(1H)-one] |
| ≤ 100 nM | Cc1cc(F)ccc1N1CN(c2cnc(=O)[nH]c2C)C(=O)c2ccc(C(F)(F)F)cc21 [Example 115, 1-(4-fluoro-2-methylphenyl)-3-(6-methyl-2-oxo-1,2-dihydropyrimidin-5-yl)-7-(trifluoromethyl)-2,3-dihydroquinazolin-4(1H)-one] |
| ≤ 100 nM | CCc1cc(F)ccc1N1CN(c2ccc(=O)[nH]c2C)C(=O)c2cc(F)ccc21 [Example 116, 1-(2-ethyl-4-fluorophenyl)-6-fluoro-3-(2-methyl-6-oxo-1,6-dihydropyridin-3-yl)-2,3-dihydroquinazolin-4(1H)-one] |

From US20230103791A1 (GLAXOSMITHKLINE INTELLECTUAL PROPERTY DEVELOPMENT LIMITED, priority 2019, published 2023)
